In the experiment the test system is Mtb BioA over-expression strain (BioA-OE). The class given is cell-based, Mycobacterium tuberculosis.

Structures are written as SMILES. ≈ marks a conversion by molar mass, not a printed value.

For `C=C(CCC(=O)O)c1nc2ccccc2s1` [Compound 13, 4-(benzothiazol-2-yl)pentenoic acid], the “MIC90 BioA-OE” value was found to be 4.7 µM (≈ 1.1 µg/mL).

(Values after PMC4305006 (Chemistry & biology, 2014).)
